From patent US20190161516A1, “PROTEASOME INHIBITORS” (University of Kentucky Research Foundation, priority 2017, published 2019)

Experiments:
LMP7/β5i = biological target: T1, LMP7/β5i (Homo sapiens, UniProt P20618+P28062); test: Proteasome activity assay, purified 20S proteasome, Ac-ANW-AMC; type: biochemical
T1 construct: purchased R&D Systems
Method: (§1) Purified 20S human proteasomes (CP and IP, R&D Systems) were used to assess the in vitro inhibition of proteasome catalytic activity by LMP2 inhibitors. […] Reactions were initiated by the addition of fluorogenic substrates containing the AMC (7-amino-4-methylcoumarin) group. Specifically, the following substrates were used: Suc-LLVY-AMC (CT-L activity, 100 μM), Ac-PAL-AMC (LMP2, 100 μM), Ac-WLA-AMC (β5, 20 μM), Ac-nLPnLD-AMC (β1,100 μM), Ac-RLR-AMC (β2/2i, 20 μM), and Ac-ANW-AMC (β5i, 100 μM). The fluorescence of liberated AMC was measured over a period of 90 min at 360 and 460 nm on a SpectraMax M5 fluorescence plate reader (Molecular Devices). For the proteasome activity of brain tissues isolated from AD mice, tissues were homogenized in RIPA buffer (50 mM Tris Cl, pH 7.4, 150 mM NaCl, 5 mM EDTA, 1% Nonidet P-40, 1% sodium deoxycholate, 0.1% SDS, 1% aprotinin, 50 mM NaF) and sonicated. Samples were centrifuged for 40 min at 14,000×g (4° C.). Protein concentration was determined using the Bradford Assay according to the manufacturer's protocol. Finally, samples were loaded onto a 96-well plate followed by the addition of the substrate (Ac-PAL-AMC) at 37° C. Fluorescence was recorded for 90 min using a Synergy-HT (Bio Tek) plate reader.

X/β5 = biological target: T2, X/β5 (Homo sapiens, UniProt P20618+P28074); test: Proteasome activity assay, purified 20S proteasome, Ac-WLA-AMC; type: biochemical
T2 construct: purchased R&D Systems
Method: Purified 20S human proteasomes (CP and IP, R&D Systems) were used to assess the in vitro inhibition of proteasome catalytic activity by LMP2 inhibitors. In our 96-well format assays involving a 100 μL total volume, 20S proteasomes (0.5 μg/mL) were incubated with inhibitors or reference compounds (e.g., carfilzomib) in assay buffer (20 mM Tris-HCl, 0.5 mM EDTA, 0.035% SDS) at room temperature for 30 min. Reactions were initiated by the addition of fluorogenic substrates containing the AMC (7-amino-4-methylcoumarin) group. Specifically, the following substrates were used: Suc-LLVY-AMC (CT-L activity, 100 μM), Ac-PAL-AMC (LMP2, 100 μM), Ac-WLA-AMC (β5, 20 μM), Ac-nLPnLD-AMC (β1,100 μM), Ac-RLR-AMC (β2/2i, 20 μM), and Ac-ANW-AMC (β5i, 100 μM). The fluorescence of liberated AMC was measured over a period of 90 min at 360 and 460 nm on a SpectraMax M5 fluorescence plate reader (Molecular Devices). For the proteasome activity of brain tissues isolated from AD mice, tissues were homogenized in RIPA buffer (50 mM Tris Cl, pH 7.4, 150 mM NaCl, 5 mM EDTA, 1% Nonidet P-40, 1% sodium deoxycholate, 0.1% SDS, 1% aprotinin, 50 mM NaF) and sonicated. Samples were centrifuged for 40 min at 14,000×g (4° C.). Protein concentration was determined using the Bradford Assay according to the manufacturer's protocol. […] Fluorescence was recorded for 90 min using a Synergy-HT (Bio Tek) plate reader.

LMP2/β1i [1] = biological target: T3, LMP2/β1i (Homo sapiens, UniProt P28065+P40306); test: Proteasome inhibitory activity, subunit-specific cell lysate IC50, LMP2; type: biochemical; parameters: Subunit-Specific Cell lysate IC50 (μM); endogenous in cells; settings: read-out: Subunit-Specific Cell lysate IC50, LMP2 (β1i)
[2] = test system: Chymotrypsin-like activity (β5/β5i); test: Proteasome inhibitory activity, subunit-specific cell lysate IC50, chymotrypsin-like activity; type: biochemical
LMP2/β1i [3] = biological target: T3, LMP2/β1i; test: Proteasome activity assay, purified 20S proteasome, Ac-PAL-AMC; type: biochemical; parameters: purchased R&D Systems
Method: as §1

[4] = test system: APPsw transgenic mouse (Tg2576) and LPS-induced mice (ICR strain); test: Morris water maze test in AD mouse models; type: in vivo; settings: FIG. 12A-12D
Method: These two compounds were used to investigate the impacts of LMP2 inhibition on cognitive deficits in two animal models of human Alzheimer's disease (AD). In these AD models, AD develops by Aβ deposition (APPsw transgenic mouse) or lipopolysaccharide (LPS)-induced neuroinflammation. For the APPsw transgenic model, also known as Tg2576, 10-month old APPsw mice were treated i.p. with LMP2 inhibitors twice a week for 3 weeks. […] Once treatments were finished, Morris water maze test was performed. All mice were trained for three times a day for 5 days before the test. The escape latency and distance traveled were recorded on a daily-basis over a 5-day period. […] This supports that the efficacy of LMP2 inhibitors is mediated through LMP2 inhibition. One day after the completion of Morris water maze test, the ability of mouse to maintain memory was evaluated by probe trials. […] Sequentially, a step-through latency test was performed a day after the probe trial. […]
The learning trials were conducted over 5 days, with 4 trials per day, with three randomized starting points. […] Swimming pattern of each mouse was monitored and recorded by a camera mounted above the center of the pool, and the escape latency, escape distance and swimming speed were assessed by the SMART-LD program (Panlab, Spain). […]

SMILES: CC(C)C[C@H](NC(=O)[C@H](Cc1ccccc1)NC(=O)[C@@H]1CCCN1C(=O)CNC(=O)c1cnccn1)C(=O)[C@@]1(C)CO1 [Analogue 16]
- IC50 (LMP7/β5i): > 10000 nM
- IC50 (X/β5): > 10000 nM
- IC50 (LMP2/β1i [1]): 80 nM
- IC50 [2]: > 10000 nM
- IC50 (LMP2/β1i [3]): 70 nM
- cognitive deficits in the APPsw mice [4]: ameliorates cognitive deficits
